According to US11072633B2 (priority 2016, dated 2021):
Converted amounts (≈) assume the structure as drawn. “And” between values parts separate entries of the source, which are not always exact repeats. Equal entries are not always repeated. Where two headings read alike, the source gives them in different places.

Tests used:
M. tuberculosis H37Rv = assay type: cell-based
[1] = tested on: FQ-R1 (fluoroquinolone-resistant strain derived from H37Rv, gyrA mutant D94N); assay type: cell-based, M. tuberculosis
[2] = tested on: INH-R1 (derived from H37Rv, katG mutant Y155*); assay type: cell-based, M. tuberculosis
[3] = tested on: RIF-R1 (derived from H37Rv, rpoB mutant S522L); assay type: cell-based, M. tuberculosis

For `COc1nc2ccc(Br)cc2cc1[C@@H](c1ccccc1)[C@@](O)(CCN(C)C)c1cccc2ccccc12` [BDQ, bedaquiline, reference compound], which Frequencies of resistance (M. tuberculosis H37Rv) is on record?
The Frequencies of resistance was 5.5 × 10^−9 and 3.4 × 10^−7.

What does the source list for `CCCN1CC2C(CC[C@@]3(C)C2CC[C@@H]3C(=O)Nc2cc(C(C)(C)C)ccc2C(C)(C)C)[C@@]2(C)CCC(=O)C=C12` (some centres unmarked) [Compound 114]?
Frequencies of resistance (M. tuberculosis H37Rv; 114 5 × MIC with BDQ 5 × MIC): 2 × 10^−7; Frequencies of resistance (M. tuberculosis H37Rv; 114 5 × MIC, BDQ none): 3.6 × 10^−6; Frequencies of resistance (M. tuberculosis H37Rv; 114 10 × MIC with BDQ 10 × MIC): 7.8 × 10^−8; Frequencies of resistance (M. tuberculosis H37Rv; 114 10 × MIC, BDQ none): 1.1 × 10^−7

What does the source list for `NNC(=O)c1ccncc1` [INH, isoniazid]?
MIC FQ-R1 [1]: 0.29 µM (≈ 0.0398 µg/mL); MIC INH-R1 [2]: >200 µM; MIC RIF-R1 [3]: 0.20 µM (≈ 0.0274 µg/mL)
